Literature values, collected in EP1587517B1, “ANTI-PROTOZOAL COMPOSITIONS COMPRISING DICLAZURIL” (JANSSEN PHARMACEUTICA N.V., priority 2003, dated 2004).
Converted amounts (≈) assume the structure as drawn. Like-named read-outs stand apart in the source and are kept apart here.

N#CC(c1ccc(Cl)cc1)c1c(Cl)cc(-n2ncc(=O)[nH]c2=O)cc1Cl (stereo not shown) [diclazuril]
solubility (N,N-dimethylformamide): 32.6 mg/mL (≈ 80 mM)
solubility (dimethyl sulphoxide): 48 mg/mL (≈ 118 mM)
solubility (tetrahydrofuran): 8.2 mg/mL (≈ 20.1 mM)
saturation concentrations in water (water): below 1 µg/L
